From publication PMC10878532, “Sperm Toolbox—A selection of small molecules to study human spermatozoa” (PLOS ONE, 2024)
Where a name gives a salt, the structure may show the parent alone.

What was measured:
LRRK2 kinase = settings: cited from earlier work
human spermatozoa [1] = experiment: Motility assay (non-capacitating conditions); format: cell-based; settings: for sperm motility and/or acrosome reacted cells (unsupervised clustering): cluster in Fig 3A heatmap, 30 μM
Method: (§1) To compare the effects of STB compounds on specific sperm functions (e.g. motility, acrosome reaction, viability), we screened them in multiple phenotypic functional assays described below. Each sperm function assay has been repeated in multiple donor pools (see Materials and methods), where each pool consists of cells donated from at least 3 different donors to address donor to donor variability. Each compound has been tested at two concentrations, 10 and 30 μM, and normalized to vehicle controls (DMSO, see Materials and methods). We have modified our assays from the previously published workflow by increasing incubation time and introducing conditions that support capacitation, which is a sperm maturation process required for fertilization. These changes expand the range of targets that we can explore in our assays. Our live-sperm-based high-throughput motility assays use an automated microscope to record short timelapse movies. These assays can be run in different protocols (S1 Fig). […] In this protocol, cells are incubated with compounds for 10 min prior to the first motility read-out. A second and third motility read-out were performed after 3h and 6h incubation. The second protocol, denoted ‘capacitation assay’, utilises conditions that support capacitation (S1 Fig). In this protocol, cells are kept in conditions supporting capacitation for 30 minutes prior to 30 minutes incubation with compound, followed by motility read-out. Both protocols allow sperm motility to be measured (0.5 sec time-lapse movies allow tracking of cells and calculation of sperm kinematics). In addition, the capacitation assay also scores hyperactivation (i.e. distinct movement patterns concomitant with capacitation which are crucial for fertilization) (Fig 2A).
Cells were rested for 1 h post density gradient centrifugation. 10 μL assay buffer was dispensed into assay ready plates, plates were put onto a shaker instrument for 30 seconds using 1,000 rpm, followed by a short pulse centrifugation. Plates were incubated for 15–30 mins at 37°C prior to addition of 10 μL of pooled cells (at 1 M/mL concentration). Plates were then incubated in a Yokogawa CV7000 microscope set at 37°C for 10 min prior to imaging. Imaging a 384-well plate requires ≤ 20 min using the following settings: 2 positions per well, 0.5 sec timelapse movies (3x binning; 11 ms exposure time, 22 ms interval time, […]). A second and a third timepoint was recorded after 3 h, and 6 h incubation at 37°C. Data has been processed as described in [8]. Assay results are from 5 separate donor pools.
(§2) For cell painting imaging data, plates of images were imported into OMERO [70]. Cell segmentation and feature extraction were performed using CellProfiler 3 [71] and using instructions from to normalize data. Timelapse data of motility assays was processed as previously described. Acrosome flow cytometry data was processed using NovoCyte Express (PerkinElmer), to gate out background debris, select for single cells and calculate percentage values of acrosome positive events. Sperm viability flow cytometry data was processed using iQue Forecyt (Satorius) to gate out background debris, select for single cells and calculate percentage values of propidium iodide positive events. For all sperm functional assays, data was normalized to DMSO control wells. Each plate had 16 DMSO wells. A median value of all 16 wells was used to calculated percentage change (pct_ch = ((value / DMSO_median) -1) * 100). For sperm viability we calculated fold-change (fc = 1 − (value / DMSO_median)). For each compound we calculated a p-value using a Welch’s t-test implemented in scipy (scipy.stats.ttest_ind) comparing a compounds effect to DMSO controls.

human spermatozoa [2] = experiment: Acrosome assay, protocol 2 (3h with compound, then 1h agonist cocktail); format: cell-based; settings: cluster in Fig 3A; 3h with compound then agonist mix
Method: The acrosome assays utilize a high-throughput flow cytometer (S1 Fig) to score for compounds inducing the acrosome reaction, using peanut agglutinin conjugated to a fluorescent dye to label the outer acrosomal membrane. We have developed two different screening protocols, named ‘acrosome 1’ and ‘acrosome 2’ (S1 Fig). Both protocols are capable of measuring induction of the acrosome reaction upon compound incubation. However, in the acrosome 2 assay, a mixture of physiological agonists of the acrosome reaction is used after cells have been incubated with compounds for 3h under conditions that support capacitation. This addition allowed measurement of inhibition of acrosome reaction (Fig 2B).
(§3) In both experimental protocols, 20 μL of pooled cells (at 1 M/mL concentration) were capacitated for 3 h in presence of compounds at 37°C and 5% CO2. In protocol a, cells were then stained with PNA-Alexa647 (ThermoFisher, 1 mg/mL, final dilution 1:1000) and Hoechst dye for 30 min at 37°C and 5% CO2, followed by 10 min fixation at RT by adding 20 μL of 4% paraformaldehyde (Sigma) in PBS. In mode b, a cocktail of progesterone, prostaglandin A and NH4Cl was added to all compound wells and incubated for an additional 1 h at 37°C and 5% CO2 to induce acrosome reaction. This was followed by fixation and staining protocol as for mode a. In both protocols fixatives and stains were removed and cells were resuspended in PBS, using a 405 platewasher. Plates were then measured on a Novocyte Advanteon high-throughput flow cytometer. Gating of data has been performed using the flow cytometer software to export counts of gated populations. The Acrosome 1 protocol using 3h incubation with compounds was run in 7 separate donor pools. The Acrosome 2 protocol using 3h incubation with compound followed by 1h stimulation of acrosome reaction was run in 5 separate donor pools.
as §2, with “Sperm viability flow cytometry data was processed using iQue Forecyt (Satorius) to gate out background debris, select for single cells and calculate percentage values of propidium iodide positive events. For all sperm functional assays, data was normalized to DMSO control wells. Each plate had 16 DMSO wells.” left out

human spermatozoa [3] = experiment: Sperm viability assay (propidium iodide, flow cytometry); format: cell-based; settings: 3h with compound
Method: In this assay, cells are incubated for 3h with compound in non-capacitating media, prior to viability assessment.
Cells were incubated with compounds for a total of 3h at 37°C. 20 min prior, propidium iodide was added (1.5 mM solution, Sigma, final dilution 1:2000). Plates were analysed using a Satorius iQue Screener with settings to allow for a sampling time of ≤30 min per 384-well plate. Gating of data has been performed using the flow cytometer software to export counts of gated populations. This assay was tested in 5 separate donor pools.
as §2

HepG2 = HepG2 cytotoxicity assay (resazurin based); format: cell-based; settings: 70h incubation
human spermatozoa [4] = experiment: Capacitation assay (motility and hyperactivation under capacitating conditions); format: cell-based; settings: cluster in Fig 3A; 30 min capacitation then 30 min with compound
Method: as §1
Cells were capacitated for 30 min at 37°C and 5% CO2. 10 μL assay buffer was dispensed into assay ready plates, plates were put onto a shaker instrument for 30 seconds using 1,000 rpm, followed by a short pulse centrifugation. Plates were incubated for 15–30 mins at 37°C and 5% CO2 prior to addition of 10 μL of pooled cells (at 1 M/mL concentration). This was followed by a 20 min compound incubation step at 37°C and 5% CO2. Plates were then incubated in our CV7000 microscope set at 37°C and 5% CO2 for 10 min prior to imaging. […]
For cell painting imaging data, plates of images were imported into OMERO [70]. […] A median value of all 16 wells was used to calculated percentage change (pct_ch = ((value / DMSO_median) -1) * 100). For sperm viability we calculated fold-change (fc = 1 − (value / DMSO_median)). For each compound we calculated a p-value using a Welch’s t-test implemented in scipy (scipy.stats.ttest_ind) comparing a compounds effect to DMSO controls.

spermatozoa = tested on: spermatozoa; parameters: method as in per compound as listed in column References of Table 1; settings: summaries of reported effects; ref per compound as listed in Table 1; cited from earlier work
HeLa = HeLa cell painting cytotoxicity assay; format: cell-based; settings: 24h compound incubation
Method: The HeLa-based assay uses the cell painting assay [11], while the HepG2 assay utilizes a resazurin based viability read-out [64].
Cell were incubated with compounds for 24h.
• 10 μL of MitoTracker (Life Technologies, M22426, 1 mM stock in DMSO as recommended by the vendor) is added to 50 μL of media (1:2000 final dilution) • Phalloidin-Alexa594 (Life Technologies, A12381, 66 μM stock in methanol as recommended by the vendor, 1:500 final dilution) • WGA-Alexa594 (Life Technologies, W11262, 5 mg/mL stock, 1:250 final dilution) was used • DAPI (5 mg/mL stock; 1:1000 final dilution) was used to stain DNA • 20 μL of staining solution was used • PBS was used for washing steps
For cell painting imaging data, plates of images were imported into OMERO [70]. Cell segmentation and feature extraction were performed using CellProfiler 3 [71] and using instructions from [11] to normalize data.

human spermatozoa [5] = experiment: Authors' own unpublished screening campaigns ('This study'); format: cell-based
Description: Because there is so little known about the molecular mechanisms that control sperm motility, we are unable to develop hypotheses of potential targets when new hits are identified in the sperm motility assay. However, it is now well-established that features derived from images in phenotypic assays, when compared to phenotypes measured on reference compounds, can accurately stratify genetic or chemical perturbations in phenotypic screens. […] Compound annotations are included in the dataset derived from the STB and indicate that Enzymes/Kinases, Receptors, Channels and Transporters are the most represented target of the STB compound classes (Fig 1D).
List of compounds included in Sperm Toolbox. Published Phenotypes are summaries of reported effects on sperm function related to other processes (e.g. spermatogenesis, liquefaction, or ejaculation).

human spermatozoa [6] = experiment: Acrosome assay, protocol 1 (3h incubation with compound, no agonist; flow cytometry, PNA); format: cell-based; settings: for ch (percentage change vs DMSO median), Acrosome: assay 'Acrosome', incubation_time 3h
Method: The acrosome assays utilize a high-throughput flow cytometer (S1 Fig) to score for compounds inducing the acrosome reaction, using peanut agglutinin conjugated to a fluorescent dye to label the outer acrosomal membrane. We have developed two different screening protocols, named ‘acrosome 1’ and ‘acrosome 2’ (S1 Fig). […] This addition allowed measurement of inhibition of acrosome reaction (Fig 2B).
as §3, §2

[7] = tested on: Testis-Specific Serine/Threonine Kinase 2 (TSSK2); parameters: method as in PMID 28952188; settings: described as; cited from earlier work
[8] = screening_concentration_M 9.99e-6
[9] = screening_concentration_M 2.991e-5

SMILES | acrosome reaction (acrosome reacted cells) (human spermatozoa [2]) | effects on sperm viability (human spermatozoa [3]) | general cytotoxicity (HepG2) (HepG2) | hyperactive motility (human spermatozoa [4]) | Published Phenotype (spermatozoa) | general cytotoxicity (HeLa) (HeLa) | other results
COc1cc(N2CCOCC2)ccc1Nc1ncc(F)c(Nc2ccccc2NS(C)(=O)=O)n1 [CZC 25146] | – | – | – | – | – | – | LRRK2 inhibition (LRRK2 kinase; annotated as): potent LRRK2 inhibitor; sperm motility (human spermatozoa [1]): decrease sperm motility
COc1cc2c(cc1OC)-c1c/c(=N\c3c(C)cc(C)cc3C)n(C)c(=O)n1CC2 [Trequinsin hydrochloride] | significantly increased | do not show effects | do not show effects | significantly increased | Increases hyperactivated sperm; increases penetration of sperm into viscous media, increases motility | do not show effects | –
C[C@]1(O)C[C@@H](c2nc(-c3ccc4ccc(-c5ccccc5)nc4c3)c3c(N)nccn32)C1 [Linsitinib] | significantly increased | do not show effects | do not show effects | significantly increased | enhances sperm motility | do not show effects | –
CCCCC(CC)CNC(=N)NC(=N)NCCCCCCNC(=N)NC(=N)NCC(CC)CCCC (stereo not shown) [Alexidine dihydrochloride] | – | – | – | – | Reduces sperm motility | – | sperm motility and/or acrosome reacted cells (unsupervised clustering) (human spermatozoa [1]): significant reduction of sperm motility and/or increased amounts of acrosome reacted cells
Nc1nc(Cl)nc2c1ncn2[C@@H]1O[C@H](CO)[C@@H](O)[C@@H]1F [Clofarabine] | significantly increased | do not show effects | do not show effects | significantly increased | Enhances sperm motility | do not show effects | –
COc1cc(C)c2c(Oc3cccc(C(F)(F)F)c3)c(OC)cc(NC(C)CCCN)c2n1 (stereo not shown) [Tafenoquine] | – | – | – | – | – | – | Phenotype observed in own screening campaigns (Published Phenotype, References 'This study') (human spermatozoa [5]): Reduces sperm motility; induces acrosome reaction; sperm motility and/or acrosome reacted cells (unsupervised clustering) (human spermatozoa [1]): significant reduction of sperm motility and/or increased amounts of acrosome reacted cells
COc1cc(C(=O)N2CCC(N3CCN(C)CC3)CC2)ccc1Nc1ncc2c(n1)N(C)c1ccccc1C(=O)N2C [LRRK2-IN-1] | significantly increased | do not show effects | do not show effects | significantly increased | – | do not show effects | LRRK2 kinase inhibition (LRRK2 kinase; described as): selective inhibitor; progressive motility (human spermatozoa [1]; non-capacitating conditions, Fig 2): enhances motility; acrosome reacted cells without agonist cocktail (human spermatozoa [6]; 3h with compound, no agonist addition): no change
N=C(N)Nc1nc2ccccc2[nH]1 [2-Guanidinobenzimidazole] | – | – | – | – | Reduces sperm motility | – | ch (percentage change vs DMSO median), Acrosome (human spermatozoa [6]; [8]): 0.2236%; ch (percentage change vs DMSO median), Acrosome (human spermatozoa [6]; [9]): 0.07571%
O=C(N1CCCCC1)N1CCCCC1Cc1ccccc1 (stereo not shown) [compound 183] | – | – | – | – | Reduces acrosome reaction | – | ch (percentage change vs DMSO median), Acrosome (human spermatozoa [6]; [8]): 0.955%; ch (percentage change vs DMSO median), Acrosome (human spermatozoa [6]; [9]): 1.376%
CNc1ccc2oc(C[C@H]3O[C@@]4(CC[C@H]3C)O[C@H]([C@H](C)C(=O)c3ccc[nH]3)[C@H](C)C[C@H]4C)nc2c1C(=O)O [A23187] | – | – | – | – | Induces acrosome reaction | – | sperm motility and/or acrosome reacted cells (unsupervised clustering) (human spermatozoa [1]): significant reduction of sperm motility and/or increased amounts of acrosome reacted cells
CNS(=O)(=O)c1ccccc1Nc1nc(Nc2ccc(C3CCN(C)CC3)cc2OC)ncc1Cl [Compound 19] | – | – | – | – | Blocks TSSK; similarity to brigatinib | – | TSSK2 inhibition [7]: potent; sperm motility (human spermatozoa [1]): decrease sperm motility
